Reference: publication PMC10515640, “Structure-Based Optimization of Covalent, Small-Molecule Stabilizers of the 14-3-3σ/ERα Protein–Protein Interaction from Nonselective Fragments” (Journal of the American Chemical Society, 2023)
Where two headings read alike, the source gives them in different places.

Key:
14-3-3σ/ERα [1] = biological target: T1, 14-3-3σ/ERα (Homo sapiens, UniProt P03372+P31947); test: Mass spectrometry dose response, compound binding to 14-3-3σ in the presence of ERα phosphopeptide; conditions: 100 nM compound, 100 nM 14-3-3σ, ERα-peptide 2 µM
T1 construct: The 14-3-3 σ isoform (full-length for mass spectrometry and fluorescence anisotropy assays, ΔC for crystallography); made in house; host or cells: E. coli Rosetta 2(DE3)pLysS, pPROEX HTb vector
Procedure, shortened: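 Covalent labeling of Cys38 on 14-3-3σ was tracked by LC-MS on a Waters Acquity UPLC/Xevo G2-XS Q-Tof, with samples desalted on a Protein BEH-C4 column. Full-length wild type 14-3-3σ (100 nM) plus ERα phosphopeptide was mixed with compound in 10 mM TRIS, pH 8.0, at 50 μl per well. Percent bound was measured at several time points.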

14-3-3σ/ERα [2] = biological target: T1, 14-3-3σ/ERα; test: Fluorescence anisotropy compound titration, FAM-labeled ERα peptide; conditions: labeling in MS assay, peptide binding in FA assay
14-3-3σ = biological target: T2, 14-3-3σ (Homo sapiens, UniProt P31947); test: Mass spectrometry dose response, compound binding to 14-3-3σ in the absence of peptide (apo); conditions: 100 nM compound, 100 nM 14-3-3σ
T2 construct: The 14-3-3 σ isoform (full-length for mass spectrometry and fluorescence anisotropy assays, ΔC for crystallography); made in house; host or cells: E. coli Rosetta 2(DE3)pLysS, pPROEX HTb vector
T2 sequence (P31947 1-248): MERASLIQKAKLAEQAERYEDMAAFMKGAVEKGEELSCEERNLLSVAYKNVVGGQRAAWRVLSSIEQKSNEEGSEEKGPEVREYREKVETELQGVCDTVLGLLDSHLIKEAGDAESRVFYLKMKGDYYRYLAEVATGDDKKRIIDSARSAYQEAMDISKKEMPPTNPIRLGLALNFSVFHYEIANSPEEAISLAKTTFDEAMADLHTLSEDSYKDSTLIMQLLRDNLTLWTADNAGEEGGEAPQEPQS
Procedure, shortened: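 This apo mass spectrometry assay tracked adduct formation between compounds and the native cysteine of 14-3-3σ in the absence of any peptide. Wells held 100 nM protein in 10 mM TRIS pH 8.0 with a 3-fold compound dilution series, final volume 50 μl. Injections of 6 μl were taken at 1h, 8h, 16h and 24h, and dose responses were fitted with a four-parameter variable-slope model in GraphPad Prism.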

14-3-3σ/ERα [3] = biological target: T1, 14-3-3σ/ERα; test: Fluorescence anisotropy compound titration, FAM-labeled ERα peptide; format: binding; conditions: for EC50: 10 nM ERα-FAM labeled peptide, 1 µM 14-3-3σ, overnight incubation (24 h)
Procedure, shortened: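 Compounds, serially diluted 2-fold from a top concentration of 500 or 1000 µM, were added to 10 nM FAM-labeled ERα peptide plus 1 µM 14-3-3σ in 10 mM HEPES pH 7.5, 150 mM NaCl, 0.1% Tween20, 1 mg/mL BSA (1% DMSO). Anisotropy was measured after overnight room-temperature incubation, and EC50 values were derived by four-parameter logistic fitting averaged over three independent experiments.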

14-3-3σ/C-RAF [4] = biological target: T3, 14-3-3σ/C-RAF (Homo sapiens, UniProt P31947); test: Mass spectrometry dose response, compound binding to 14-3-3σ in the presence of C-RAF phosphopeptide; conditions: 100 nM compound, 100 nM 14-3-3σ, C-RAF peptide 18 µM
T3 construct: The 14-3-3 σ isoform (full-length for mass spectrometry and fluorescence anisotropy assays, ΔC for crystallography); made in house; host or cells: E. coli Rosetta 2(DE3)pLysS, pPROEX HTb vector
T3 sequence (P31947 1-248): T2 sequence (P31947 1-248)
Procedure, shortened: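 Compound stocks of 50 mM in DMSO were serially diluted 3-fold to give 19-point dose responses topping out at 1 mM, then 1000 nl was transferred into 50 μl wells holding 100 nM full-length wild type 14-3-3σ plus C-RAF phosphopeptide. Mass spectrometry measured percent compound bound to Cys38, with curves fitted in GraphPad Prism using a four-parameter variable-slope model.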

14-3-3σ/C-RAF [5] = biological target: T3, 14-3-3σ/C-RAF; test: Fluorescence anisotropy compound titration, FAM-labeled C-RAF peptide; format: binding; conditions: for stabilization of 14-3-3σ/C-RAF (in words): MS and FA assays, abstract: up to 150 μM compound
14-3-3σ/C-RAF [6] = biological target: T3, 14-3-3σ/C-RAF; test: as above; format: binding; conditions: 10 nM C-RAF-FAM labeled peptide, 5 µM 14-3-3σ, overnight incubation; read-out: EC50 value C-RAF (FA compound titration)
Procedure, shortened: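 Peptide-binding stabilization was followed by fluorescence anisotropy. A mix of 5 µM 14-3-3σ and 10 nM FAM-labeled C-RAF peptide received 2-fold serial dilutions of compound starting at 500 or 1000 µM. The buffer was 10 mM HEPES pH 7.5, 150 mM NaCl, 0.1% Tween20 and 1 mg/mL BSA. Anisotropy was read after incubating overnight at room temperature. A four-parameter logistic fit in GraphPad Prism 7 gave EC50 values averaged from three experiments.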

14-3-3σ/ERα [7] = biological target: T1, 14-3-3σ/ERα; test: Fluorescence anisotropy protein titration, FAM-labeled ERα peptide; format: binding; conditions: 10 nM FAM-ERα peptide
Protocol: To evaluate compound-mediated stabilization of the 14-3-3σ/ERα complex directly, FA protein titrations were performed at a saturating concentration of compound. FA protein titrations allowed the quantification of the cooperative effect by comparing the apparent dissociation constants (appKD) of the binary and ternary complexes. 14-3-3σ was titrated into 10 nM FAM-labeled ERα peptide in the presence of DMSO or 100 μM of the compounds (Table S4). […]
diluted in buffer (10 mM HEPES, pH 7.5, 150 mM NaCl, 0.1% Tween20, 1 mg/mL Bovine Serum Albumin (BSA; Sigma-Aldrich). Final DMSO in the assay was always 1%. […]
Protein titrations were made by titrating 14-3-3σ in a 2-fold dilution series (starting at 300 µM) to a mix of fluorescein-labeled peptide (10 nM) and DMSO or compound (100 µM). Fluorescence anisotropy measurements were performed after overnight incubation at room temperature. […]
Wells containing only FAM-peptide were used to set as G-factor at 35 mP. Data reported are at endpoint. EC50 and apparent Kd values were obtained from fitting the data with a four-parameter logistic model (4PL) in GraphPad Prism 7 for Windows. Data was obtained and averaged based on either three (compound titrations) or two (protein titrations) independent experiments.

[8] = EC50 value ERα (FA compound titration)
[9] = read-out: EC50 value ERα (FA compound titration)

SMILES	Percentage (%) bound of compound to 14-3-3σ, ERα 1h (14-3-3σ/ERα [1])	Percentage (%) bound of compound to 14-3-3σ, ERα 8h (14-3-3σ/ERα [1])	Percentage (%) bound of compound to 14-3-3σ, ERα 16h (14-3-3σ/ERα [1])	Percentage (%) bound of compound to 14-3-3σ, ERα 24h (14-3-3σ/ERα [1])	activity in MS and FA assays (in words) (14-3-3σ/ERα [2])	Percentage (%) bound of compound to 14-3-3σ, APO 1h (14-3-3σ)	Percentage (%) bound of compound to 14-3-3σ, APO 8h (14-3-3σ)	Percentage (%) bound of compound to 14-3-3σ, APO 16h (14-3-3σ)	Percentage (%) bound of compound to 14-3-3σ, APO 24h (14-3-3σ)	EC50 (14-3-3σ/ERα [3]; [8])	Percentage (%) bound of compound to 14-3-3σ, CRAF 1h (14-3-3σ/C-RAF [4])	Percentage (%) bound of compound to 14-3-3σ, CRAF 8h (14-3-3σ/C-RAF [4])	Percentage (%) bound of compound to 14-3-3σ, CRAF 24h (14-3-3σ/C-RAF [4]; 24h)	Percentage (%) bound of compound to 14-3-3σ, CRAF 24h (14-3-3σ/C-RAF [4]; head prints 24h)	EC50 (14-3-3σ/C-RAF [6])	stabilization of 14-3-3σ/C-RAF (in words) (14-3-3σ/C-RAF [5])	EC50 (14-3-3σ/ERα [3]; [9])	further results
C=CS(=O)(=O)NCC1CCN(C(=O)C2(Nc3ccc(Cl)cc3)CCOCC2)CC1 [compound 155]	0.6%	1.5%	5.9%	14.1%	inactive	0%	0.7%	4.6%	31.4%	> 150 µM	0%	0%	1.0%	0%	–	–	–	–
O=C(CCl)NCC1CCN(C(=O)C2(Nc3ccc(Cl)cc3)CCCC2)CC1 [compound 118]	11.2%	24.1%	60.1%	96.6%	–	0%	0%	0.8%	13.0%	5 ± 0.4 µM	2.9%	3.4%	23.7%	11.5%	–	–	–	EC50 (14-3-3σ/C-RAF [5]; EC50 value C-RAF (FA compound titration), 10 nM C-RAF-FAM labeled peptide, 5 µM 14-3-3σ, overnight incubation): > 150 µM; selectivity for ERα (over C-RAF, FA EC50) (14-3-3σ/ERα [3]; FA compound titrations): greater than 30 fold
NC1CCC(Nc2ccc(Cl)cc2)(C(=O)N2CCC(CNC(=O)CCl)CC2)CC1 (stereo not drawn) [compound 137]	36.3%	60.4%	90.0%	96.4%	–	1.4%	1.9%	3.2%	9.3%	–	1.7%	3.6%	10.4%	6.6%	> 150 µM	no stabilization	8 ± 1 µM	–
CC(C)(Nc1ccccc1)C(=O)N1CCC(CNC(=O)CCl)CC1 [compound 85]	0.9%	1.2%	1.5%	1.5%	inactive	0%	0%	0%	0%	–	0.9%	1.2%	1.5%	1.5%	–	–	> 150 µM	–
O=C(CCl)NCC1CCN(C(=O)C2(Nc3ccc(Cl)cc3)CCNCC2)CC1 [compound 131]	54.4%	82.2%	94.0%	98.3%	–	1.4%	2.2%	5.8%	14.1%	–	2.0%	2.4%	12.5%	4.6%	> 150 µM	no stabilization	2 ± 0.3 µM	X Fold stabilization (100 µM compound) of 14-3-3σ/ERα (14-3-3σ/ERα [7]; versus DMSO reference): 30 fold; Kd (14-3-3σ/ERα [7]; 100 µM compound, overnight incubation): 0.049 µM
